What was measured:
[1] = tested on: AECOPD; settings: single oral dose; cited from earlier work
[2] = tested on: fibrinogen; test: AETHER exploratory outcome: fibrinogen measured in patient blood; format: in vivo, human; settings: high and low dose over 5 days; including patients with <2% eosinophils; maximal at Day 7; FIG. 4
Text: (§1) A Phase 2 trial (referred to as AETHER) was a double-blind, randomised, placebo-controlled clinical study investigating the use of BCT-197, on top of Standard of Care, for the treatment of patients with AECOPD. Standard of Care included the addition of steroids and/or antibiotics to a patient's chronic COPD medication and symptomatic bronchodilators. Following baseline assessment, 282 eligible patients were randomised to receive either two different dose regimens of BCT-197 or placebo (three doses over five days). The primary endpoint was a comparison of change in forced expiratory volume in 1 second (FEV1) from baseline to day 7 within each arm of the study.
(§2) Patients received one of two oral dosing regimens of 3-[5-amino-4-(3-cyanobenzoyl)-pyrazol-1-yl]-N-cyclopropyl-4-methylbenzamide or matching oral placebo administered according to the dosing schedules shown in Table 1.
(§3) A further exploratory outcome included over the treatment period to Day 5 and BCT197 systemic exposure (to Day 14) were the inflammatory biomarkers high sensitivity C-Reactive Protein (hsCRP) and fibrinogen measured in patient blood. […] This was maximal at Day 7 (FIGS. 3 and 4) coincident with the highest improvement in FEV1 (FIG. 2) in response to BCT197 in the same patient population with <2% eosinophils.

[3] = tested on: patients with AECOPD; test: Phase 2 trial (AETHER): change in FEV1 from baseline to Day 7, on top of Standard of Care; format: in vivo, human; settings: for improvement in FEV1 (change from baseline to Day 7): sub-group with blood eosinophils <2%, oral, three doses over five days (Days 1, 3, 5), on top of Standard of Care, FIG. 1, FIG. 2
Text: as §1
The trial assessed adult patients ≥40 years with an acute exacerbation of COPD (as defined by increase in symptoms of cough, and/or sputum and/or breathlessness that required addition of antibiotics and or systemic corticosteroids to their regular treatment).
Patients received one of two oral dosing regimens of 3-[5-amino-4-(3-cyanobenzoyl)-pyrazol-1-yl]-N-cyclopropyl-4-methylbenzamide or matching oral placebo administered according to the dosing schedules shown in Table 1. […]
Efficacy of treatment was measured by the primary endpoint of change in FEV1 from baseline (before treatment) to Day 7. Patients with COPD and low eosinophils (determined by blood percentages or absolute counts) are considered to be poorly responsive to treatment of acute exacerbations using known treatments.

[4] = tested on: high sensitivity C-Reactive Protein (hsCRP); test: AETHER exploratory outcome: hsCRP measured in patient blood; format: in vivo, human; settings: high and low dose over 5 days; including patients with <2% eosinophils; maximal at Day 7; FIG. 3
Text: as §1, §2, §3

Cc1ccc(C(=O)NC2CC2)cc1-n1ncc(C(=O)c2cccc(C#N)c2)c1N [BCT197, 3-[5-Amino-4-(3-cyanobenzoyl)-pyrazol-1-yl]-N-cyclopropyl-4-methylbenzamide]
effect on recovery of AECOPD to the stable disease state [1]: accelerates the recovery to the stable disease state | reduction versus placebo in fibrinogen from baseline [2]: dose-dependent reduction | relative difference in FEV1 response versus standard of care alone (placebo arm) ([3]; >2% eosinophil sub-population, FIG. 1): much less than in the low eosinophil group | improvement in FEV1 (change from baseline to Day 7) [3]: substantial and consistent improvement in FEV1 | improvement in FEV1 (change from baseline to Day 7) ([3]; listed as compound A): significant improvement | reduction versus placebo in hsCRP from baseline [4]: dose-dependent reduction
